Assay results as given in patent publication US4724259A, “Azo dyes and liquid-crystalline materials containing these dyes” (BASF Aktiengesellschaft, priority 1983, dated 1988).

Experiments:
Type in all cases: physicochemical
[1] = Solubility L in liquid crystal mixture (saturated solution, comparison of extinction); conditions: room temperature, percentages by weight unless stated otherwise
[2] = Degree of order S in nematic broad-range mixture (dichroic ratio, homogeneous edge orientation, ground PVA cells); conditions: room temperature
Procedure: The degree of order S was determined using the conventional equation [formula] the measurement being carried out in commercial measuring cells with a homogeneous edge orientation (ground PVA). The dichroic ratio CR was determined by measuring the extinctions E" (measurement with light polarized parallel to the preferred direction of the nematic phase) and E^.perp. (measurement with light polarized perpendicular to the preferred direction of the nematic phase) and using the relationship CR=E"/E^.perp. the dye concentration being chosen so that E" was from 1 to 2. The measurements were carried out in a Beckmann Acta CIII spectrophotometer.

[3] = Light stability: high-speed exposure of the measuring cell in a Suntest from Hanau; conditions: 25° C., at the stated λmax
Procedure: The light stability was determined by high-speed exposure of the measuring cell in a Suntest from Hanau, at 25° C. In this procedure, the decrease in E" was measured. […] E" was determined at the stated λmax values.

[4] = ZLI 1840 (Merck), 1 week stirring

Row | Structure (SMILES) | Solubility L [1, 4] | Degree of order S ([2]; ZLI 1840 (Merck)) | E80% " (exposure time after which E"o has decreased to 80%) [3] | Eo " (initial extinction) [3] | Solubility L ([1]; ZLI 1957/5 (Merck)) | Degree of order S ([2]; ZLI 1957/5 (Merck))
1 | Cc1cc(O)ccc1N=Nc1ccc(N=Nc2ccc(N=Nc3ccc(OCc4ccccc4)cc3C)cc2)cc1 [Example 1, 4-(2-methyl-4-hydroxyphenylazo)-4'-(2-methyl-4-benzyloxyphenylazo)-azobenzene] | 0.9% | 0.75 | – | – | – | –
2 | Cc1cc(C)c(COc2ccc(N=Nc3ccc(N=Nc4ccc(N=Nc5ccc(OCc6c(C)cc(C)cc6C)cc5C)cc4)cc3)c(C)c2)c(C)c1 [Example 3] | 1.0% | 0.77 | 110 h | 1.95 | – | –
3 | Cc1cc(OCc2ccc(C(C)(C)C)cc2)ccc1N=Nc1ccc(N=Nc2ccc(N=Nc3ccc(OCc4ccc(C(C)(C)C)cc4)cc3C)cc2)cc1 [Example 4] | 0.3% | 0.75 | – | – | – | –
4 | CCCCCC1CCC(c2ccc(COc3ccc(N=Nc4ccc(N=Nc5ccc(N=Nc6ccc(O)cc6C)cc5)cc4)c(C)c3)cc2)CC1 (centres unmarked) [Example 5] | 1.9% | 0.79 | 70 h | 1.23 | – | –
5 | CCCCC1CCC(c2ccc(COc3ccc(N=Nc4ccc(N=Nc5ccc(N=Nc6ccc(OCc7ccc(C8CCC(CCCC)CC8)cc7)cc6C)cc5)cc4)c(C)c3)cc2)CC1 (centres unmarked) [Example 8] | 0.3% | 0.79 | – | – | – | –
6 | CCCCCC1CCC(c2ccc(COc3ccc(N=Nc4ccc(N=Nc5ccc(N=Nc6ccc(OCc7ccc(C8CCC(CCCCC)CC8)cc7)cc6C)cc5)cc4)c(C)c3)cc2)CC1 (centres unmarked) [Example 9] | 0.8% | 0.81 | 140 h | 1.51 | – | –
7 | CCCCCc1ccc(COc2ccc(N=Nc3ccc(N=Nc4ccc(N=Nc5ccc(OCc6ccc(CCCCC)cc6)cc5C)cc4)cc3)c(C)c2)cc1 [Example 10] | – | – | – | – | 1.2% | 0.81
8 | Cc1cc(OCc2cc(C(C)(C)C)cc(C(C)(C)C)c2)ccc1N=Nc1ccc(N=Nc2ccc(N=Nc3ccc(OCc4cc(C(C)(C)C)cc(C(C)(C)C)c4)cc3C)cc2)cc1 [Example 11] | – | – | – | – | 0.7% | 0.76
9 | CCCCCc1ccc(COc2cc(C)c(N=Nc3ccc(N=Nc4ccc(N=Nc5c(C)cc(OCc6ccc(CCCCC)cc6)cc5C)cc4)cc3)c(C)c2)cc1 [Example 16] | – | – | – | – | 3% | 0.80
10 | CCCCCC1CCC(c2ccc(COc3cc(C)c(N=Nc4ccc(N=Nc5ccc(N=Nc6c(C)cc(OCc7ccc(C8CCC(CCCCC)CC8)cc7)cc6C)cc5)cc4)c(C)c3)cc2)CC1 (centres unmarked) [Example 17] | – | – | – | – | 0.2% | 0.81
